This is an account of results in PubChem BioAssay AID2305 (GlaxoSmithKline (GSK), 2010).

Each structure is given as a SMILES string.

The assay concerns P. falciparum 3D7 growth, pLDH absorbance. Kind of assay: P. falciparum 3D7 growth inhibition, dose response, strain 3D7 (AID 2305).

Usually IC50 stands for the concentration needed to halve the response being measured. Compound `NC1CCN(c2nc(NCCc3ccc(O)cc3)nc(NCc3ccccc3-c3ccccc3)n2)CC1` gave an IC50 of 820 nM.

The compound `CCC(C)C#Cc1c(C)nc(N)nc1N` (stereo not given) displayed an IC50 of 260 nM. Under `O=[N+]([O-])c1ccc(C(O)P(=O)(c2ccccc2)c2ccccc2)cc1` (stereo not given) stands 340 nM; under `CCOc1ccc2c(NN=Cc3ccccc3F)cc(C)nc2c1`, 680 nM; under `O=S(=O)(NCCN1CCCC1)c1cccc(-c2ccc(CNCc3ccccc3)cc2)c1`, 1000 nM. In turn, `OCCNc1nc(Nc2ccc(F)cc2)nc2ccccc12` displayed a half-inhibitory concentration (IC50) of 160 nM. Under `CN1CCN(Cc2ccc(-c3ccc4c(Nc5ccc(Oc6ccccc6)cc5)ccnc4c3)o2)CC1` stands 180 nM. `CN(C)CCOc1cc(NC(=O)Nc2ccc(Oc3ccccc3)cc2)ccc1I` came in with an IC50 of 890 nM. Take `COc1cc2c(Nc3ccc(NC(=O)c4ccccc4)cc3)ncnc2cc1OCCCN1CCOCC1`: the half-inhibitory concentration (IC50) turned out to be 650 nM. Consider `CC1(C)CCNc2cc(NC(=O)c3ccc(-c4ncccc4C(F)(F)F)cc3)ccc21`, for which the IC50 turned out to be 900 nM. For `Cc1nc(C(C)Nc2nncc(-c3ccc(Cl)cc3)n2)cs1` (stereo not given), the 50% inhibitory concentration (IC50) is 1330 nM. Under `CC(=O)Nc1ncc(C(=O)Nc2cccc(-c3ccc(-c4nc5ccc(F)cc5[nH]4)cc3)c2)s1` stands 620 nM. On to `CCOc1ccc2c(c1)OC(c1ccccc1)(C(F)(F)F)NC2=O` (stereo not given), for which the IC50 was 170 nM.

With `Nc1nc(Nc2ccc(Cl)cc2)nc2ccccc12`, the IC50 turned out to be 730 nM. For `O=C(Nc1cc(C(F)(F)F)cc(C(F)(F)F)c1)N1CCC(CCN2CCC(c3c[nH]c4ccccc34)CC2)CC1`, the IC50 was 1260 nM. The compound `NC(N)=NCCN(Cc1ccccc1)c1ccc(Cl)cc1` yielded an IC50 of 50 nM.

In the case of `COc1ccccc1CC1CCCN(C2CCC(NC(=O)c3cc4ccccc4[nH]3)CC2)C1` (stereo not given), the IC50 turned out to be 840 nM. With `Cc1ccccc1CNc1noc(-c2sccc2Br)n1`, the IC50 came out at 380 nM.

As for `CCCCC([C@@H](Cc1ccc2ccccc2c1)C(=O)N[C@H](C(=O)NC)C(C)(C)C)N(O)C=O` (stereo not given in full), the IC50 came to 140 nM. Under `O=C1CSc2ccc(CNC3CCN(CCc4c(Cl)cnc5ccc(F)cc45)CC3)nc2N1` stands 430 nM. Under `Cc1ccccc1N1CCN(c2ccc(C(=O)NC3CC3)cn2)CC1` stands 460 nM; under `CCOC(=O)c1cc(C(=O)NCCCCN2CCC(c3ccc4c(c3OC)CCCC4)CC2)ccc1-c1ccc(C(F)(F)F)cc1`, 710 nM. Turning to `O=C(CCn1c2ccccc2c2ccccc21)NN=Cc1ccco1`, the IC50 worked out at 590 nM. In turn, `O=C(NC1CCN(Cc2ccc3c(c2)OCCO3)CC1)c1ccc(-c2cccc(Cl)c2)s1` registered an IC50 of 1910 nM. Under `O=C(/C=C/c1ccc(Cl)c(Cl)c1)NCCCCCCN1CCCN(C(=O)Nc2cccc(Cl)c2)CC1` stands 860 nM; under `COc1ccccc1Nc1nc(C)cc(NCc2ccc(-c3c(C)noc3C)cc2)n1`, 870 nM; under `COc1cccc(Nc2c(C(N)=O)cnc3ccc(-c4ccccc4)cc23)c1`, 770 nM. Under `CN(C)c1ccc(CN2CCCC(CNC(=O)c3ccc(-c4cccc(C(F)(F)F)c4)s3)C2)cc1` (stereo not given) stands 1200 nM; under `Clc1ccc(Nc2nc3nonc3nc2Nc2ccc(Cl)c(Cl)c2)cc1`, 650 nM. `Cc1cc(NN=Cc2ccc(Cl)cc2)c2cccc(C)c2n1` returned an IC50 of 720 nM. Under `Cn1ccc(-c2cccc(Nc3ccnc4cc(-c5nccs5)ccc34)c2)n1` stands 410 nM; under `CN(C)CCCN1CCN(Cc2ccc(-c3ccc(-c4nc5ccccc5[nH]4)s3)cc2)CC1`, 820 nM. Under `Cc1ccc(-n2nc3ccc(NC(=O)c4ccc([N+](=O)[O-])o4)cc3n2)cc1C` stands 400 nM; under `COc1cc(C=CC(=O)NC2CCC(CN3CCC(c4c[nH]c5ccccc45)CC3)CC2)cc(OC)c1` (stereo not given), 810 nM; under `CCOC(=O)/C(=N\OC(C(=O)OC(C)(C)C)c1ccccc1)c1csc(NC(c2ccccc2)(c2ccccc2)c2ccccc2)n1` (stereo not given), 1110 nM.

Take `NC1=NC2(CCCCC2)N(OCCCCCCc2ccccc2)C(N)=N1`: the IC50 worked out at 350 nM. Consider `Cc1ccccc1C1CCN(C2CCC(NC(=O)/C=C/c3ccc(C#N)cc3)CC2)CC1` (stereo not given), for which the IC50 turned out to be 1170 nM.

The compound `CC(CNCc1cn(Cc2cc(Br)cc(Br)c2)c2ccccc12)CNc1cc(=O)c2ccccc2[nH]1` (stereo not given) displayed an IC50 of 460 nM. Under `CN(C)CCCOc1ccc(CN2CC[C@H](NC(=O)c3ccc(Cl)c(Cl)c3)C2)c2ccccc12` stands 880 nM; under `COc1ccc2nccc(CCC3(O)CCC(NCc4cc5c(cc4F)SCC(=O)N5)CC3)c2c1` (stereo not given), 670 nM.

As for `CC(C)(C)N1CCC(N(Cc2ccc(-c3ccc(C(F)(F)F)cc3)cc2)C(=O)Cn2c(CCc3cccc(F)c3F)nc(=O)c3cccnc32)CC1`, the IC50 is 760 nM. Regarding `Cc1cccc2[nH]c(-c3ccc(-c4cccc(CN5CC(C)OC(C)C5)c4)s3)nc12` (stereo not given), the IC50 was determined as 760 nM.

Compound `COc1ccc(Nc2nc(NCc3ccco3)c3ccccc3n2)cc1` displayed a concentration for half-maximal inhibition (IC50) of 740 nM. Under `Cn1cc(-c2ccccc2C(=O)O)c(=O)c2cc(Cl)ccc21` stands 920 nM; under `CCn1ccc2c(N3CCCS3(=O)=O)cc(C(=O)N[C@@H](Cc3ccccc3)[C@H](O)CNC3CCCCC3)cc21`, 140 nM; under `CCCCCOc1ccc(N2C(N)=NC(N)=NC2(C)C)cc1`, 200 nM. In the case of `Cc1cccc(CN2CCCN(Cc3ccc(C(=O)Nc4ccc(Cl)cc4)cc3)CC2)c1`, the IC50 amounted to 600 nM. Under `COc1ccc(C(C)Nc2nc(N)c3cc(OC)c(OC)cc3n2)cc1` (stereo not given) stands 940 nM; under `CC(O)C1CCCCN1C(=O)c1ccc(-c2ccc(-c3nc4ccc(F)cc4[nH]3)cc2)cc1` (stereo not given), 440 nM. Under `Cc1[nH]c(C)c(-c2ccc(-c3ccccc3)nc2)c(=O)c1Br` stands 660 nM; under `CCOCc1cnc(C)nc1NCC(=O)c1c(C)[nH]c2cc(C)ccc12`, 1210 nM; under `CN1CCC[C@H]1COc1ccc(CN2CC[C@H](NC(=O)c3ccc(Cl)c(Cl)c3)C2)c2ccccc12`, 950 nM. `C[C@H](O)[C@@](C)(CO)NCc1ccc2c3c(cccc13)-c1ccccc1-2` returned an IC50 of 820 nM.

Compound `Cc1ccc(C2(C)CC(C)(C)N(C(=O)COc3ccc4ccccc4c3)c3ccccc32)cc1` (stereo not given) had an IC50 of 110 nM. Under `Clc1ccc(-c2[nH]c3ccccc3c2CN2CCC(N3CCCCC3)CC2)cc1` stands 1060 nM; under `CN(c1ccc(NC(=O)Nc2cccc(Cl)c2)cc1)c1ccnc(N)n1`, 630 nM; under `Cc1[nH]nc2cc(Nc3nccc(Nc4ccc(Oc5ccccc5)cc4)n3)ccc12`, 600 nM. `C=C[C@H]1CN2CC[C@H]1C[C@H]2[C@H](OS(=O)(=O)O)c1ccnc2ccccc12` gave a half-maximal inhibitory concentration (IC50) of 620 nM. Under `CC(C)c1ccc(N(CC(=O)N/N=C/c2ccc(C(F)(F)F)cc2)S(=O)(=O)c2ccc(C(F)(F)F)cc2)cc1` stands 850 nM; under `CC(=O)Nc1ccc2[nH]cc(C3CCN(CC4CCN(C(=O)/C=C/c5ccc(Cl)c(Cl)c5)CC4)CC3)c2n1`, 160 nM; under `Cc1ccc(C)c(Cn2ccc3nc(Cl)nc(Cl)c32)c1`, 910 nM. The compound `C=C[C@H]1CN(CCCCCCC)CC[C@H]1CC(=O)Nc1cnnc2ccc(OC)cc12` showed an IC50 of 530 nM. Under `Cc1noc(C)c1S(=O)(=O)N(C)Cc1ccc(-c2ccc(Cl)cc2)o1` stands 360 nM; under `CCCNC(=O)c1ccnc(-c2ccc(CNC3Cc4ccccc4C3)cc2)c1`, 940 nM. Under `Cc1ccc2nc(/N=C(\N)NC(=O)NC3CCCCC3)nc(C)c2c1` stands 620 nM.

`CC1Cc2ccccc2N1CC(=O)Nc1cc(C(F)(F)F)ccc1-n1cncn1` (stereo not given) displayed an IC50 of 320 nM. For the compound `COc1ccc(-n2cc(CNCCCn3ccnc3)c(-c3cccc(F)c3)n2)cc1`, the IC50 came out at 1060 nM. Consider `O=S1c2ccccc2Sc2ccccc21`, for which the 50% inhibitory concentration (IC50) was determined as 170 nM.

Take `Cc1[nH]c2ccccc2c(=O)c1Br`: the IC50 was determined as 840 nM. Under `CCOC(=O)c1cn(CC)c2cc(OCc3ccccc3)ccc2c1=O` stands 950 nM; under `COc1cc(F)c2ncc(Cl)c(CCN3CCC(NCc4ccc5c(c4)NC(=O)CS5)CC3)c2c1`, 310 nM; under `O=C(N[C@@H](CC1CCCCC1)C(=O)NCc1cccc(C(F)(F)F)c1)c1ccc(O)c(-c2ccc(Cl)c(Cl)c2)c1`, 220 nM. Under `COc1ccc2nccc([C@@H](O)CN3CCC(NC(=O)C(=O)c4c[nH]c5c(C)cccc45)CC3)c2c1` stands 310 nM; under `c1cn(-c2ccc(CNc3nccc(Nc4ccc(OCCN5CCOCC5)cc4)n3)cc2)cn1`, 880 nM. Under `COc1ccc2ncc(F)c([C@H](O)CN3CCC(NCc4cc5c(cn4)OCCO5)CC3)c2c1` stands 290 nM. The compound `COc1ccc2c(NN=Cc3ccc(Cl)cc3)ccnc2c1` displayed an IC50 of 870 nM. Under `CCOc1cc2ncnc(Nc3ccc(OCc4ccccc4Br)c(OC)c3)c2cc1OCC` stands 470 nM; under `CCC(=O)Nc1ccc(Nc2nc(C)cc(N3CCCC3)n2)cc1`, 1320 nM. As for `CCCc1cc(NCC)nc(Nc2ccc(F)cc2)n1`, the IC50 worked out at 1030 nM. Consider `COc1ccc2[nH]cc(C3CCN(CCC4CCN(C(=O)/C=C/c5ccc(Cl)c(Cl)c5)CC4)CC3)c2c1`, for which the IC50 is 860 nM. Take `CCCCCCCCCC(=O)NCC1CC(Br)=NO1` (stereo not given): the IC50 came to 1050 nM. Under `Clc1ccc(Nc2nc3ccc(Cl)cc3nc2Nc2ccc(Cl)cc2)cc1` stands 130 nM; under `Cc1noc(C)c1-c1cccc(CNCc2ccc(-c3ccc(-c4nc5ccc(C(F)(F)F)cc5[nH]4)s3)cc2)c1`, 180 nM; under `Cc1ccccc1C1CCN(C2CCC(NC(=O)c3csc(-c4cccc(Cl)c4)n3)CC2)CC1` (stereo not given), 1150 nM.

`CN(Cc1cnc2nc(N)nc(N)c2n1)c1ccc(C(=O)N[C@H](CCC(=O)OC(C)(C)C)C(=O)N[C@@H](CCC(=O)OC(C)(C)C)C(=O)OC(C)(C)C)cc1`: the IC50 is 1020 nM. Under `CCOc1cc(Cc2cnc(N)nc2N)cc(OCC)c1O` stands 1170 nM; under `COc1ccc2nccc([C@@H](O)CN3CCC(NCc4cc5cc(Cl)ccc5[nH]4)CC3)c2c1`, 130 nM.

`CCn1c(-c2nonc2N)nc2cnc(Oc3cccc(NC(=O)c4ccc(OCCN(C(C)C)C(C)C)cc4)c3)cc21` gave an IC50 of 780 nM. Under `N#Cc1ccc(Sc2nnc(-c3ccccc3Cl)n2CC2CCCCC2)cc1[N+](=O)[O-]` stands 1160 nM. Regarding `CC(C(=O)Nc1ccc(Br)cc1Br)N1CCN(C(=O)c2ccco2)CC1` (stereo not given), the IC50 worked out at 750 nM.
